Target: T1, VEGFR-2 (Homo sapiens, UniProt P35968)
T1 construct: gene KDR
Assay: in vitro VEGFR-2 inhibition, Human VEGFR-2 ELISA kit
Format: biochemical

T1 sequence (P35968 20-1356): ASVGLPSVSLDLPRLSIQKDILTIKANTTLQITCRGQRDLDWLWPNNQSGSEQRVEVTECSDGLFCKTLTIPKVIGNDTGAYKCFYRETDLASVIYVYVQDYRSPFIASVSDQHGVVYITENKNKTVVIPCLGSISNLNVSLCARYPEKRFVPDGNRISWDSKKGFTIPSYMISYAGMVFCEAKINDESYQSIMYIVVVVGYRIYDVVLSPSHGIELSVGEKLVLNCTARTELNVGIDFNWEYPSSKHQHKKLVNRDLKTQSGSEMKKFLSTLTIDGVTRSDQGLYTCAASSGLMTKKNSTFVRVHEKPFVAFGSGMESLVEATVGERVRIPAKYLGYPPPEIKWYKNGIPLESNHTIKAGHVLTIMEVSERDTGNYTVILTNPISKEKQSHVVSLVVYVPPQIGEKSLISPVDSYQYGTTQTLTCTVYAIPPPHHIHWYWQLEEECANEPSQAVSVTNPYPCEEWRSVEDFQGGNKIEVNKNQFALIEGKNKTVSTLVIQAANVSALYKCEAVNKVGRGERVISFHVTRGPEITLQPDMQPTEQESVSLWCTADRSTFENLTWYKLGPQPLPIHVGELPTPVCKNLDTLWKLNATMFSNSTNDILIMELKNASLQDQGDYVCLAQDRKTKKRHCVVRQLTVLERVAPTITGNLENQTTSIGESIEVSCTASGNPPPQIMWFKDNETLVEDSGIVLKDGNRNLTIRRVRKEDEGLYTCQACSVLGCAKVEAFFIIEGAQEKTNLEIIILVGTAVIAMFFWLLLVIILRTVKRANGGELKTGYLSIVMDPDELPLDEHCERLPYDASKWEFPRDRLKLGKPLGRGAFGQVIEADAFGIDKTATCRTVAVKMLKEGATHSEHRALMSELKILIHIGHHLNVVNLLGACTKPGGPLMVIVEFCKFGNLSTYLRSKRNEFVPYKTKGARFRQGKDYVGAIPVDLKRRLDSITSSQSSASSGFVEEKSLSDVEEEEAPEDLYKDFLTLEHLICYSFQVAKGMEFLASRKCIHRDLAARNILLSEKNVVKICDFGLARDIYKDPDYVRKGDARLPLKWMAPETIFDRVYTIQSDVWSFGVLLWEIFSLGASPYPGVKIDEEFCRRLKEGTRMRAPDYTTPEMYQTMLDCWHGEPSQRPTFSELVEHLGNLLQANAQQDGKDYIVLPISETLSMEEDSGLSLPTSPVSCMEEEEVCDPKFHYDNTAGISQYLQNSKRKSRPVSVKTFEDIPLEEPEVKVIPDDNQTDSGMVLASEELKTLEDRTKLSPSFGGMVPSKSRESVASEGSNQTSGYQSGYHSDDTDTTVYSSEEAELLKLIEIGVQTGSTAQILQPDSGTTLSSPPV

IC50: 0.0658 µM
SMILES: C/C(=N\NC(=O)c1ccc(NC(=O)C(F)(F)F)cc1)c1cccc(NC(=O)c2cccnc2)c1 [compound 10, (E)-N-(3-(1-(2-(4-(2,2,2-Trifluoroacetamido)benzoyl)hydrazono)ethyl)phenyl)nicotinamide]
